Assay results taken from patent US4147778A, “Antibiotic baumycin complex and components thereof” (Zaidan Hojin Biseibutsu Kagaku Kenkyu Kai, priority 1976, dated 1979).
Values after ≈ are worked out from the molar mass of the structure shown. “Also recorded” adds a separate entry of the source. Like-named read-outs stand apart in the source and are kept apart here.

Experiments:
[1] = Acute toxicity, LD50 upon intraperitoneal injection; format: in vivo
Source text: The LD50 values upon intraperitoneal injection of the
antibiotics of the present invention are shown in the […]

animal tumors = assay: Inhibition of growth of animal tumors; format: in vivo; details: experimental animal tests
Source text: (§1) For example, BDF1 mice were inoculated intraperitoneally with 1 × 10^6 L-1210 cells/mouse and 24 hrs. after inoculation the drug was intraperitoneally injected once daily for 10 days consecutively. On day 30, the % of prolongation of the survival time to control was as follows: […]

gram-positive bacteria = assay: Antimicrobial activity against gram-positive bacteria; format: cell-based
Source text: (§2) The minimum inhibitory concentration of the present antibiotics as determined by the broth dilution method are shown in Table 1.

Solubility = format: physicochemical
mouse L-1210 leukemia = assay: Prolongation of survival time of mice inoculated with L-1210 leukemia; format: in vivo, BDF1 mice; details: for Prolongation of the survival time T/C: BDF1 mice, 1 × 10^6 L-1210 cells i.p., day 30; for Inhibitory effect on mouse L-1210 leukemia: in words
Source text: as §1

[2] = Toxicity in experimental animal tests; format: in vivo
B. cereus ATCC 9634 = assay: Minimum inhibitory concentration, broth dilution method; format: cell-based; details: for MIC: Bacillus cereus, ATCC9634, B. cereus ATCC 9634; for Minimum inhibitory concentration: B. cereus ATCC 9634
Source text: as §2

B. subtilis ATCC 6633 = assay: as above; format: cell-based; details: for Minimum inhibitory concentration: B. subtilis ATCC 6633
Source text: as §2

[3] = test system: B. megarterium NRRL B-938; assay: as above; format: cell-based
Source text: as §2

[4] = test system: Mycobacterium smegmatis ATCC 607; assay: as above; format: cell-based; details: for MIC: Mycolicibacterium smegmatis, ATCC607, Mycobacterium smegmatis ATCC 607; for Minimum inhibitory concentration: Mycobacterium smegmatis ATCC 607
Source text: as §2

Staph. aureus Smith = assay: as above; format: cell-based; details: for MIC: Staphylococcus aureus
Source text: as §2

Coryne. bovis 1810 = assay: as above; format: cell-based
Source text: as §2

Candida tropicalis = assay: as above; format: cell-based
Source text: as §2

Sarcina lutea ATCC 9341 = assay: as above; format: cell-based; details: for Minimum inhibitory concentration: Sarcina lutea ATCC 9341
Source text: as §2

Proteus morganii = assay: as above; format: cell-based; details: for MIC: Morganella morganii
Source text: as §2

[5] = test system: Ps. fluorescens NIHJB-254; assay: as above; format: cell-based; details: for MIC: Pseudomonas fluorescens, NIHJB254, Ps. fluorescens NIHJB-254; for Minimum inhibitory concentration: Ps. fluorescens NIHJB-254
Source text: as §2

Micrococcus flavs = assay: as above; format: cell-based
Source text: as §2

Staph. aureus FDA209P = assay: as above; format: cell-based; details: for MIC: Staphylococcus aureus, FDA209P
Source text: as §2

[6] = test system: Candida albicans IAM 4905; assay: as above; format: cell-based; details: for MIC: IAM4905, Candida albicans IAM 4905; for Minimum inhibitory concentration: Candida albicans IAM 4905
Source text: as §2

animal tumor systems = details: reported in J. Antibiotics 27:254-259 (1974) and others; cited from earlier work
[7] = in acidic water, DMSO, methylcellosolve, methanol, ethanol, n-propanol, n-butanol, ethyl acetate, butyl acetate, acetone, methyl ethyl ketone, methylene chloride and chloroform
[8] = in n-hexane, cyclohexane and petroleum ether
[9] = 0.06 mg./kg./day i.p. once daily for 10 days
[10] = 0.125 mg./kg./day i.p. once daily for 10 days
[11] = 0.25 mg./kg./day i.p. once daily for 10 days
[12] = 0.5 mg./kg./day i.p. once daily for 10 days
[13] = 1 mg./kg./day i.p. once daily for 10 days
[14] = in acidic water, methyl cellosolve, methanol, ethanol, n-propanol and n-butanol
[15] = in ethyl acetate, acetone, methylene chloride, chloroform, carbon tetrachloride, benzene, toluene, ethyl ether and n-hexane
[16] = 2 mg./kg./day i.p. once daily for 10 days
[17] = 4 mg./kg./day i.p. once daily for 10 days
[18] = 6 mg./kg./day i.p. once daily for 10 days
[19] = 8 mg./kg./day i.p. once daily for 10 days

COc1cccc2c1C(=O)c1c(O)c3c(c(O)c1C2=O)CC(O)(C(C)=O)CC3OC1CC(N)C(OC(CC(C)O)OC(C)CO)C(C)O1 (stereo not drawn) [BM-A1]
LD50 [1]: 1.5 to 2.5 mg/kg | Inhibition of growth of animal tumors / antitumor activity (animal tumors; listed as Baumycin A1): inhibit the growth of various animal tumors; also recorded: marked antitumor activity; also recorded: marked inhibitory action against animal malignant tumors, especially ascitic and solid tumors | Antimicrobial activity (gram-positive bacteria; listed as Baumycin A1): inhibit the growth of gram-positive bacteria; also recorded: possess antimicrobial activity, especially against gram-positive bacteria | Solubility (Solubility; [7]): Soluble | Solubility (Solubility; [8]): Insoluble | Solubility (Solubility; in water): Insoluble | Prolongation of the survival time T/C (mouse L-1210 leukemia; 0.004 mg./kg./day i.p. once daily for 10 days): 131% | Prolongation of the survival time T/C (mouse L-1210 leukemia; 0.008 mg./kg./day i.p. once daily for 10 days): 131% | Prolongation of the survival time T/C (mouse L-1210 leukemia; 0.015 mg./kg./day i.p. once daily for 10 days): 155% | Prolongation of the survival time T/C (mouse L-1210 leukemia; 0.03 mg./kg./day i.p. once daily for 10 days): 187% | Prolongation of the survival time T/C (mouse L-1210 leukemia; [9]): > 300% | Inhibitory effect on mouse L-1210 leukemia (mouse L-1210 leukemia): marked inhibitory effects | Toxicity [2]: low toxicity | MIC (B. cereus ATCC 9634): 1.56 µg/mL (≈ 2.32 µM) | Minimum inhibitory concentration (B. subtilis ATCC 6633): 0.78 µg/mL (≈ 1.16 µM) | Minimum inhibitory concentration [3]: 1.56 µg/mL (≈ 2.32 µM) | MIC [4]: 6.25 µg/mL (≈ 9.28 µM) | MIC (Staph. aureus Smith): 0.78 µg/mL (≈ 1.16 µM) | Minimum inhibitory concentration (Coryne. bovis 1810): 1.56 µg/mL (≈ 2.32 µM) | MIC (Candida tropicalis): 100 µg/mL (≈ 148 µM) | Minimum inhibitory concentration (Sarcina lutea ATCC 9341): 0.78 µg/mL (≈ 1.16 µM) | MIC (Proteus morganii): > 100 µg/mL | MIC [5]: > 100 µg/mL | MIC (Micrococcus flavs; Micrococcus, read-out: Minimum inhibitory concentration, Micrococcus flavs): 0.78 µg/mL (≈ 1.16 µM) | MIC (Staph. aureus FDA209P): 1.56 µg/mL (≈ 2.32 µM) | MIC [6]: 100 µg/mL (≈ 148 µM)

COc1cccc2c1C(=O)c1c(O)c3c(c(O)c1C2=O)CC(O)(C(C)=O)CC3OC1CC(N)C(OC(CC(C)O)OC(C)CO)C(C)O1 (stereo not drawn) [BM-A2]
LD50 [1]: 15 to 20 mg/kg | Inhibition of growth of animal tumors / antitumor activity (animal tumors; listed as Baumycin A2): inhibit the growth of various animal tumors; also recorded: marked antitumor activity; also recorded: marked inhibitory action against animal malignant tumors, especially ascitic and solid tumors | Antimicrobial activity (gram-positive bacteria; listed as Baumycin A2): inhibit the growth of gram-positive bacteria; also recorded: possess antimicrobial activity, especially against gram-positive bacteria | Solubility (Solubility; [7]): Soluble | Solubility (Solubility; [8]): Insoluble | Solubility (Solubility; in water): Insoluble | Prolongation of the survival time T/C (mouse L-1210 leukemia; [9]): 141% | Prolongation of the survival time T/C (mouse L-1210 leukemia; [10]): 151% | Prolongation of the survival time T/C (mouse L-1210 leukemia; [11]): 163% | Prolongation of the survival time T/C (mouse L-1210 leukemia; [12]): 173% | Prolongation of the survival time T/C (mouse L-1210 leukemia; [13]): 167% | Inhibitory effect on mouse L-1210 leukemia (mouse L-1210 leukemia): marked inhibitory effects | Toxicity [2]: low toxicity | Minimum inhibitory concentration (B. cereus ATCC 9634): 3.12 µg/mL (≈ 4.63 µM) | Minimum inhibitory concentration (B. subtilis ATCC 6633): 3.12 µg/mL (≈ 4.63 µM) | Minimum inhibitory concentration [3]: 6.25 µg/mL (≈ 9.28 µM) | Minimum inhibitory concentration [4]: 12.5 µg/mL (≈ 18.6 µM) | Minimum inhibitory concentration (Staph. aureus Smith): 1.56 µg/mL (≈ 2.32 µM) | Minimum inhibitory concentration (Coryne. bovis 1810): 6.25 µg/mL (≈ 9.28 µM) | Minimum inhibitory concentration (Candida tropicalis): 100 µg/mL (≈ 148 µM) | Minimum inhibitory concentration (Sarcina lutea ATCC 9341): 3.12 µg/mL (≈ 4.63 µM) | Minimum inhibitory concentration (Proteus morganii): > 100 µg/mL | Minimum inhibitory concentration [5]: 100 µg/mL (≈ 148 µM) | Minimum inhibitory concentration (Micrococcus flavs; Micrococcus flavs): 1.56 µg/mL (≈ 2.32 µM) | Minimum inhibitory concentration (Staph. aureus FDA209P): 3.12 µg/mL (≈ 4.63 µM) | Minimum inhibitory concentration [6]: 100 µg/mL (≈ 148 µM)

COc1cccc2c1C(=O)c1c(O)c3c(c(O)c1C2=O)CC(O)(C(C)=O)CC3OC1CC(N)C(OC(CC(C)O)OC(C)C(=O)O)C(C)O1 (stereo not drawn) [BM-B1]
LD50 ([1]; in vivo, ip, read-out: LD50): 40 to 60 mg/kg | Inhibition of growth of animal tumors / antitumor activity (animal tumors; listed as Baumycin B1): inhibit the growth of various animal tumors; also recorded: marked antitumor activity; also recorded: marked inhibitory action against animal malignant tumors, especially ascitic and solid tumors | Antimicrobial activity (gram-positive bacteria; listed as Baumycin B1): inhibit the growth of gram-positive bacteria; also recorded: possess antimicrobial activity, especially against gram-positive bacteria | Solubility (Solubility; [14]): Soluble | Solubility (Solubility; [15]): Insoluble | Solubility (Solubility; in water, listed as Baumycin B1): Insoluble | Prolongation of the survival time T/C (mouse L-1210 leukemia; [10]): 93% | Prolongation of the survival time T/C (mouse L-1210 leukemia; [11]): 99% | Prolongation of the survival time T/C (mouse L-1210 leukemia; [12]): 99% | Prolongation of the survival time T/C (mouse L-1210 leukemia; [13]): 105% | Prolongation of the survival time T/C (mouse L-1210 leukemia; [16]): 117% | Prolongation of the survival time T/C (mouse L-1210 leukemia; [17]): 136% | Prolongation of the survival time T/C (mouse L-1210 leukemia; [18]): 165% | Prolongation of the survival time T/C (mouse L-1210 leukemia; [19]): 147% | Inhibitory effect on mouse L-1210 leukemia (mouse L-1210 leukemia): marked inhibitory effects | Toxicity [2]: low toxicity | MIC (B. cereus ATCC 9634): 100 µg/mL (≈ 145 µM) | MIC (B. subtilis ATCC 6633; Bacillus subtilis, ATCC6633, B. subtilis ATCC 6633): 100 µg/mL (≈ 145 µM) | MIC [3]: 100 µg/mL (≈ 145 µM) | MIC [4]: 100 µg/mL (≈ 145 µM) | MIC (Staph. aureus Smith): 50 µg/mL (≈ 72.7 µM) | MIC (Coryne. bovis 1810; Corynebacterium bovis): 50 µg/mL (≈ 72.7 µM) | MIC (Candida tropicalis): 100 µg/mL (≈ 145 µM) | MIC (Sarcina lutea ATCC 9341; Micrococcus luteus, ATCC9341, Sarcina lutea ATCC 9341): 50 µg/mL (≈ 72.7 µM) | MIC (Proteus morganii): > 100 µg/mL | MIC [5]: 100 µg/mL (≈ 145 µM) | MIC (Micrococcus flavs; Micrococcus flavs, read-out: Minimum inhibitory concentration): 50 µg/mL (≈ 72.7 µM) | MIC (Staph. aureus FDA209P): 50 µg/mL (≈ 72.7 µM) | MIC ([6]; Candida albicans): 100 µg/mL (≈ 145 µM)

COc1cccc2c1C(=O)c1c(O)c3c(c(O)c1C2=O)CC(O)(C(C)=O)CC3OC1CC(N)C(OC(CC(C)O)OC(C)C(=O)O)C(C)O1 (stereo not drawn) [BM-B2]
LD50 [1]: 75 to 100 mg/kg | Inhibition of growth of animal tumors / antitumor activity (animal tumors; listed as Baumycin B2): inhibit the growth of various animal tumors; also recorded: marked antitumor activity; also recorded: marked inhibitory action against animal malignant tumors, especially ascitic and solid tumors | Antimicrobial activity (gram-positive bacteria; listed as Baumycin B2): inhibit the growth of gram-positive bacteria; also recorded: possess antimicrobial activity, especially against gram-positive bacteria | Solubility (Solubility; [14]): Soluble | Solubility (Solubility; [15]): Insoluble | Solubility (Solubility; in water, listed as Baumycin B2): soluble | Prolongation of the survival time T/C (mouse L-1210 leukemia; [13]): 99% | Prolongation of the survival time T/C (mouse L-1210 leukemia; [16]): 99% | Prolongation of the survival time T/C (mouse L-1210 leukemia; [17]): 111% | Prolongation of the survival time T/C (mouse L-1210 leukemia; [18]): 135% | Prolongation of the survival time T/C (mouse L-1210 leukemia; [19]): 155% | Inhibitory effect on mouse L-1210 leukemia (mouse L-1210 leukemia): marked inhibitory effects | Toxicity [2]: low toxicity | Minimum inhibitory concentration (B. cereus ATCC 9634): > 100 µg/mL | Minimum inhibitory concentration (B. subtilis ATCC 6633): > 100 µg/mL | Minimum inhibitory concentration [3]: > 100 µg/mL | Minimum inhibitory concentration [4]: > 100 µg/mL | Minimum inhibitory concentration (Staph. aureus Smith): 50 µg/mL (≈ 72.7 µM) | Minimum inhibitory concentration (Coryne. bovis 1810): 50 µg/mL (≈ 72.7 µM) | Minimum inhibitory concentration (Candida tropicalis): > 100 µg/mL | Minimum inhibitory concentration (Sarcina lutea ATCC 9341): 25 µg/mL (≈ 36.4 µM) | Minimum inhibitory concentration (Proteus morganii): > 100 µg/mL | Minimum inhibitory concentration [5]: > 100 µg/mL | Minimum inhibitory concentration (Micrococcus flavs; Micrococcus flavs): 50 µg/mL (≈ 72.7 µM) | Minimum inhibitory concentration (Staph. aureus FDA209P): 100 µg/mL (≈ 145 µM) | Minimum inhibitory concentration [6]: > 100 µg/mL

CC(=O)[C@]1(O)Cc2c(O)c3c(c(O)c2[C@@H](O[C@H]2C[C@H](N)[C@H](O)[C@H](C)O2)C1)C(=O)c1c(O)cccc1C3=O [carminomycin]
Activity in animal tumor systems (animal tumor systems): active in several animal tumor systems
